Patent publication US20200347136A1, “CONSTRAINED CYCLIC PEPTIDES AS INHIBITORS OF THE CD2:CD58 PROTEIN-PROTEIN INTERACTION FOR TREATMENT OF DISEASES AND AUTOIMMUNE DISORDERS” (Board of Supervisors for the University of Louisiana System, priority 2019, published 2020)
Numbered stars: 1 amine (or outer) side, 2 acyl side, 3 side chain; on linkers, the order of the positions; unused ones are H or OH. Bridge positions count the residues as written; N and C are the ends. Square brackets hold non-standard residues; d marks the D form. Peptide text beside a SMILES is read from it. βAla(3R-(1-naphthyl)) = O=C(C[C@@H](N[*:1])c1cccc2ccccc12)[*:2]; βAla(3S-(1-naphthyl)) = O=C(C[C@H](N[*:1])c1cccc2ccccc12)[*:2]; X1 = O=C(CCc1cccc2c1oc1c(CCN[*:1])cccc12)[*:2]

Columns and labels:
MCF-7 cells = conditions: read-out: IC50 MCF-7 (HER2−); antiproliferative activity
Procedure: (§1) Antiproliferative activity of grafted cyclic peptides. Antiproliferative activity of the designed grafted peptides was evaluated in different HER2-overexpressing cancer cell lines as well as HER2 negative cancer cell lines.
(§2) Table 1. […] Single letter amino acid code was used for peptide sequence. Lower case letters refer to D amino acids and capital letters refer to L amino acids. Chirality of Anapa was indicated with R and S configuration in italics. Antiproliferative activity of peptides in cancer cell lines are given as IC50 in μM. Disulfide bonds between the cysteines are underlined.

BT-474 cells = conditions: for IC50: read-out: IC50 BT-474 (HER2+), antiproliferative activity
Procedure: as §1, §2

[1] = biological target: T1, CD2:CD58 interaction (Jurkat T cells / HFLS-RA cells) (Homo sapiens, UniProt P19256); experiment: cell adhesion inhibition, Jurkat / HFLS-RA cells; format: cell-based
T1 construct: we used HFLS-RA cells derived from RA patients; endogenous in cells; host or cells: HFLS-RA (CD58) and Jurkat (CD2)
T1 sequence (P19256 29-250): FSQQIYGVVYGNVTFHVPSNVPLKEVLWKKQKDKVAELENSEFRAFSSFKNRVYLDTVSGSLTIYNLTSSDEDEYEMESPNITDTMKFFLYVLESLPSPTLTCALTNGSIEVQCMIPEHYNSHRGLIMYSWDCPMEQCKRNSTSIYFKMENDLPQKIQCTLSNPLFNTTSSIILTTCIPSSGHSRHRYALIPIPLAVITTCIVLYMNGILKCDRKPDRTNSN
Procedure: (§7) The ability of peptides to inhibit the CD2:CD58 protein-protein interaction was studied by evaluating the adhesion interaction between cells using model systems. […] The model systems we used included Jurkat and ovarian cancer (OVACR-3) cells and Jurkat and human fibroblast-like synoviocyte-rheumatoid arthritis (HFLS-RA) cells. Since OVCAR-3 cells and HFLS-RA cells express CD58, adhesion interactions between CD2 and CD58 can be studied using these model systems. Peptides were incubated with adherent cells that expressed CD58, and Jurkat cells were added to evaluate the adhesion. […] A broad range of concentrations (0.0005 to 200 μM) was used in the first screen and based on the inhibitory activity of the peptides in that concentration range, data points for a dose-response study were chosen. The concentration-response curves for the various peptides were obtained in the range of 0.0005 to 10 μM.
(§8) Cell adhesion was also evaluated in a well-established E-rosetting assay. […] To evaluate the cell adhesion inhibitory activity of peptides from cells associated with autoimmune disease, we used HFLS-RA cells derived from RA patients.

[2] = biological target: T2, CD2:CD58 interaction (Jurkat T cells / OVCAR-3 cells) (Homo sapiens, UniProt P19256); experiment: cell adhesion inhibition, Jurkat / OVCAR-3 cells; format: cell-based
T2 construct: CD2+ Jurkat T cells and CD58+ OVCAR-3 cells; endogenous in cells; host or cells: OVCAR-3 (CD58) and Jurkat (CD2)
T2 sequence (P19256 29-250): T1 sequence (P19256 29-250)
Procedure: as §7, §8

CD2:CD58 [3] = experiment: Cell adhesion inhibition IC50 (µM) | T cell-OVCAR-3
Procedure: (§3) Table printed on a drawing sheet, Fig. 5
Head of the field: Cell adhesion inhibition IC50 (µM) | T cell-OVCAR-3
(§4) Table of stable peptides designed based on sunflower trypsin inhibitor (SFTI) and their cell adhesion inhibition activities in a model system. OVCAR-3 and HFLS-RA cells express CD58. Jurkat T cells express CD2 protein. Inhibition of adhesion between Jurkat and OVCAR-3/HFLS-RA cells was evaluated. Cell adhesion inhibition is represented as IC50 value
(§5) First copying reader's note: In the SFTI sequences the stretch from the first C to the second C is underlined on the sheet; the ± error stands inside the IC50 cells.
(§6) Where the first naming reader finds the target: description_of_the_figure: OVCAR-3 and HFLS-RA cells express CD58. Jurkat T cells express CD2 protein. Inhibition of adhesion between Jurkat and OVCAR-3/HFLS-RA cells was evaluated.

Calu-3 cells = conditions: read-out: IC50 Calu-3 (HER2+); antiproliferative activity
Procedure: as §1, §2

A549 cells = conditions: read-out: IC50 A549 (HER2+); antiproliferative activity
Procedure: as §1, §2

[4] = test system: collagen-induced arthritis; conditions: cited from earlier work
[5] = test system: CD2:CD58 interaction (SRBC expressing CD58 / Jurkat cells expressing CD2); experiment: E-rosetting assay, sheep red blood cells / Jurkat T cells; format: cell-based
Procedure: Peptides were added to AET-treated sheep red blood cells (SRBC) (expressing CD58 protein) first, and Jurkat cells (expressing CD2 protein) labeled with BCECF were added later. Cells with five or more SRBC bound were counted as rosettes. Values are percent inhibition of peptide-treated cells and are expressed as the mean of three experimental values. Error bars represent standard error of the mean (SEM).
The ability of peptides to inhibit cell adhesion was evaluated using E-rosetting assay via interaction between sheep red blood cells (SRBC) expressing CD58 and Jurkat T cells expressing CD2 protein. When these cells are incubated, they adhere to each other. Each Jurkat cell adheres to many sheep red blood cells. Five or more SRBC adhering to a Jurkat cell is counted as positive E-rosetting.
CD2:CD58 [6] = experiment: Cell adhesion inhibition IC50 (µM) | T cell-HFLS-RA
Procedure: as §3
Head of the field: Cell adhesion inhibition IC50 (µM) | T cell-HFLS-RA
as §4, §5, §6

CD2:CD58 interaction = biological target: T3, CD2:CD58 interaction (Homo sapiens, UniProt P19256); experiment: cell adhesion inhibition between T cells (CD2) and epithelial cells (CD58), model systems; format: cell-based
T3 construct: Peptides were incubated with adherent cells that expressed CD58; endogenous in cells; host or cells: Jurkat T cells with OVCAR-3 or HFLS-RA cells
T3 sequence (P19256 29-250): T1 sequence (P19256 29-250)
Procedure: as §7

Calu-3 xenograft tumors = experiment: Calu-3 xenograft model of lung cancer in nude mice; format: in vivo; conditions: Calu-3 xenograft; SFTI-G5 8 mg/kg intratumoral thrice a week; antibodies 12 then 6 mg/kg once a week
Procedure: 5×10^6 Calu-3 cells suspended in serum-free medium were subcutaneously inoculated in left flank region of mice to induce lung cancer (Foxn1-nude). Peptide (8 mg/kg) was administered via intratumoral injection three times a week after 10 days, Pertuzumab was injected with a loading dose of 12 mg/kg and then 6 mg/kg as maintenance dose intraperitonially once a week, Trastuzumab and pertuzumab combination was injected at a loading dose of 12 mg/kg and then 6 mg/kg as maintenance dose once a week. […] For comparison, pertuzumab (up triangle, blue) and trastuzumab and pertuzumab combination (down triangle, red) also shown (with standard errors for n=6). […] C) PPI inhibition assessed by PLA on tumor tissue sample. […] Tumor sections were homogenized, and protein was extracted and subjected to Western blot. […] (** p<0.01). Mean±SEM.
HER2 dimerization inhibitors such as pertuzumab and trastuzumab and pertuzumab combinations were also administered as control groups (FIG. 11A). […] During the course of the experiment, the tumor size in the control xenograft group without any treatment continued to increase, reaching a diameter of ˜9 mm in 28 days (FIG. 11B).
To evaluate the phosphorylation of HER2 protein, Western blot analysis was performed on frozen tumor samples.

Compound `N=C(N)NCCC[C@@H]1NC(=O)[C@H]2CCCN2C(=O)[C@@H]2CCCN2C(=O)[C@H](CCCNC(=N)N)NC(=O)C[C@H](c2cccc3ccccc23)NC(=O)[C@@H]2CSSC[C@H](NC(=O)C[C@H](c3cccc4ccccc34)NC1=O)C(=O)N[C@@H](Cc1ccccc1)C(=O)N[C@@H](Cc1ccccc1)C(=O)N2` [SFTI-G2, Cyclo(C(R-X)RPpR(R-X)CFF)] (cyclo(C[βAla(3R-(1-naphthyl))]RP[dP]R[βAla(3R-(1-naphthyl))]CFF); disulfide 1-8) has an IC50 (MCF-7 cells) greater than 50 µM and an IC50 (BT-474 cells) of 5.23 ± 1.38 µM.
Compound `C[C@@H]1NC(=O)[C@@H]2CSSC[C@H](NC(=O)[C@H](CC(=O)O)NC(=O)[C@H](CC(=O)O)NC(=O)CNC(=O)[C@H](CC(=O)O)NC(=O)[C@H](Cc3ccc(O)cc3)NC1=O)C(=O)N[C@@H](CCCCN)C(=O)N[C@@H](CO)C(=O)N[C@@H](C)C(=O)NCCc1cccc3c1Oc1c(cccc1-3)CCC(=O)N[C@@H](CO)C(=O)N2` [SFTI-DBF] (cyclo(AYDGDDCKSA[X1]SC); disulfide 7-13) has an IC50 [1] of 0.003 µM and an IC50 [2] of 0.00061 µM.
`N=C(N)NCCC[C@@H]1NC(=O)[C@@H]2CCCN2C(=O)[C@@H]2CCCN2C(=O)[C@H](CCCNC(=N)N)NC(=O)C[C@H](c2cccc3ccccc23)NC(=O)[C@@H]2CSSC[C@H](NC(=O)C[C@H](c3cccc4ccccc34)NC1=O)C(=O)N[C@@H](Cc1ccccc1)C(=O)N2` [SFTI-G3, Cyclo(C(R-X)RPPR(R-X)CF)] (cyclo(C[βAla(3R-(1-naphthyl))]RPPR[βAla(3R-(1-naphthyl))]CF); disulfide 1-8) gave an IC50 (MCF-7 cells) greater than 50 µM and an IC50 (BT-474 cells) of 3.65 ± 0.41 µM.
`C[C@@H]1NC(=O)[C@H](CCCCN)NC(=O)[C@@H]2CSSC[C@H](NC(=O)[C@H](CO)NC(=O)[C@@H]3CCCN3C(=O)[C@@H]3CCCN3C(=O)[C@H](C)NC(=O)[C@H](CO)NC1=O)C(=O)N[C@@H](Cc1ccc(O)cc1)C(=O)N[C@@H](CC(=O)O)C(=O)NCC(=O)N[C@@H](CC(=O)O)C(=O)N[C@@H](CC(=O)O)C(=O)N2` [SFTI-a] (cyclo(APPSCYDGDDCKAS); disulfide 5-11) gave an IC50 (CD2:CD58 [3]) of 0.043 ± 0.025 µM.
With `N=C(N)NCCC[C@@H]1NC(=O)[C@H]2CCCN2C(=O)[C@@H]2CCCN2C(=O)[C@H](CCCNC(=N)N)NC(=O)C[C@H](c2cccc3ccccc23)NC(=O)[C@H](Cc2ccccc2)NC(=O)[C@H](CC(=O)O)NC(=O)[C@H](CC(=O)O)NC(=O)[C@H](Cc2ccccc2)NC(=O)C[C@H](c2cccc3ccccc23)NC1=O` [Compound 18, Cyclo(PpR(R-X)FDDF(R-X)R), reference compound] (cyclo(P[dP]R[βAla(3R-(1-naphthyl))]FDDF[βAla(3R-(1-naphthyl))]R)) the IC50 (MCF-7 cells) was greater than 50 µM.
Compound `CC[C@H](C)[C@@H]1NC(=O)[C@H](C)NC(=O)C[C@@H](c2cccc3ccccc23)NC(=O)[C@@H]2CSSC[C@H](NC(=O)C[C@@H](c3cccc4ccccc34)NC(=O)[C@H](C)NC(=O)[C@@H]3CCCN3C(=O)[C@@H]3CCCN3C1=O)C(=O)N[C@@H](C)C(=O)N1CCC[C@H]1C(=O)N[C@@H](CC(=O)O)C(=O)N[C@@H](C)C(=O)N[C@@H](Cc1ccccc1)C(=O)N2` [Control-G, Cyclo(C(S-X)AIPPA(S-X)CAPDAF), reference compound] (cyclo(AFC[βAla(3S-(1-naphthyl))]AIPPA[βAla(3S-(1-naphthyl))]CAPD); disulfide 3-11) has an IC50 (Calu-3 cells) greater than 50 µM, an IC50 (MCF-7 cells) greater than 50 µM and an IC50 (BT-474 cells) greater than 50 µM. It also gave an IC50 (A549 cells) greater than 50 µM.
In the case of `CC[C@H](C)[C@@H]1NC(=O)[C@H](CC(=O)O)NC(=O)[C@H](CC(=O)O)NC(=O)[C@@H]2CCCN2C(=O)[C@H]2CCCN2C(=O)[C@H](CC(=O)O)NC(=O)[C@H](Cc2ccc(O)cc2)NC(=O)[C@H]([C@@H](C)CC)NC(=O)[C@H](CO)NC(=O)[C@H](CCCCN)NC1=O` [Peptide 6, Cyclo(SIYDpPDDIK)], the histopathology of paws ([4]; 0.5 mg/kg) is given as “clear joint space with normal cartilage interface”, the “anti-CII antibodies in sera” value ([4]; 0.5 and 1 mg/kg i.v.) is given as “dose-dependent reduction” and the “acute clinical signs of illness / direct toxicity” value ([4]; DBA/1 mice, during dosing) is given as “minimal, if any, direct toxicity”. It also gave an IC50 [5] of 0.0094 ± 0.0003 µM.
For `CC[C@H](C)[C@@H]1NC(=O)[C@H](CO)NC(=O)[C@H](CC(=O)O)NC(=O)[C@H](Cc2ccccc2)NC(=O)[C@@H]2CSSC[C@H](NC(=O)[C@H](Cc3ccccc3)NC(=O)[C@H](CC(=O)O)NC(=O)[C@@H]3CCCN3C(=O)[C@@H]3CCCN3C1=O)C(=O)N[C@H](c1cccc3ccccc13)CC(=O)N[C@@H](CCCNC(=N)N)C(=O)N1CCC[C@H]1C(=O)NCC(=O)N[C@@H](CCCNC(=N)N)C(=O)N[C@H](c1cccc3ccccc13)CC(=O)N2` [SFTI-G4] (cyclo(C[βAla(3S-(1-naphthyl))]RPGR[βAla(3S-(1-naphthyl))]CFDSIPPDF); disulfide 1-8), the IC50 (MCF-7 cells) was greater than 30 µM and the IC50 (BT-474 cells) was 17.2 ± 1.03 µM.
Compound `CC[C@H](C)[C@@H]1NC(=O)[C@H](CO)NC(=O)[C@H](CC(=O)O)NC(=O)[C@H](Cc2ccccc2)NC(=O)[C@@H]2CSSC[C@H](NC(=O)[C@H](Cc3ccccc3)NC(=O)[C@H](CC(=O)O)NC1=O)C(=O)N[C@H](c1cccc3ccccc13)CC(=O)N[C@@H](CCCNC(=N)N)C(=O)N[C@@H](CC(=O)O)C(=O)N[C@@H](CCCNC(=N)N)C(=O)N[C@H](c1cccc3ccccc13)CC(=O)N2` [SFTI-G1, Cyclo(C(S-X)RDR(S-X)CFDSIDF)] (cyclo(C[βAla(3S-(1-naphthyl))]RDR[βAla(3S-(1-naphthyl))]CFDSIDF); disulfide 1-7) has an IC50 (MCF-7 cells) greater than 50 µM and an IC50 (BT-474 cells) of 4.16 ± 0.179 µM.
Compound “Cyclo(CTKSIPPICFPDGR) (cyclic) [SFTI-wt (control)]” has an IC50 (CD2:CD58 [6]) greater than 50 µM and an IC50 (CD2:CD58 [3]) greater than 50 µM.
Work on `C[C@@H]1NC(=O)[C@@H]2CSSC[C@H](NC(=O)[C@H](CC(=O)O)NC(=O)[C@H](CC(=O)O)NC(=O)CNC(=O)[C@H](CC(=O)O)NC(=O)[C@H](Cc3ccc(O)cc3)NC1=O)C(=O)N[C@@H](CCCCN)C(=O)N[C@@H](CO)C(=O)N[C@@H](C)C(=O)N1CCC[C@H]1C(=O)N1CCC[C@H]1C(=O)N[C@@H](CO)C(=O)N2` [SFTI-a1] (cyclo(APPSCAYDGDDCKS); disulfide 5-12) yielded an IC50 (CD2:CD58 interaction) of 0.022 µM and an IC50 (CD2:CD58 [6]) of 0.0388 ± 0.0102 µM.
With “pertuzumab: antibody known to bind HER2 ECD domain II and inhibit dimerization of EGFRs [reference compound]” the tumor growth (Calu-3 xenograft tumors) was “significantly reduced tumor growth progression”.
With `CC[C@H](C)[C@@H]1NC(=O)[C@H](CCCNC(=N)N)NC(=O)C[C@H](c2cccc3ccccc23)NC(=O)[C@@H]2CSSC[C@H](NC(=O)C[C@H](c3cccc4ccccc34)NC(=O)[C@H](CCCNC(=N)N)NC(=O)[C@@H]3CCCN3C(=O)[C@@H]3CCCN3C1=O)C(=O)N[C@@H](Cc1ccccc1)C(=O)N1CCC[C@H]1C(=O)N[C@@H](CC(=O)O)C(=O)N[C@@H](CC(=O)O)C(=O)N[C@@H](Cc1ccccc1)C(=O)N2` [SFTI-G6, Cyclo(C(R-X)RIPPR(R-X)CFPDDF)] the IC50 (MCF-7 cells) was greater than 50 µM, the “change of antiproliferative activity on altering Anapa chirality (S to R)” value (BT-474 cells; SFTI-G6 versus SFTI-G5) was “tenfold decrease” and the IC50 (BT-474 cells) was 2.94 ± 1.06 µM.
